Values of other authors as cited in the PKSmart pharmacokinetics tables (Seal et al. 2025).

Tests used:
[1] = Lombardo, Berellini, Obach 2018, Drug Metab Dispos 46:1466, doi 10.1124/dmd.118.082966; conditions: human; for MRT / Vd / clearance / half-life: in vivo, iv; for fraction unbound: plasma
[2] = Lombardo et al. 2013, J Clin Pharmacol 53:178, doi 10.1177/0091270012440282; conditions: for Vd / clearance: in vivo, iv; for fraction unbound: plasma

Row | Structure (SMILES) | MRT [1] [h] | Vd [1] [L/kg] | clearance [1] [mL/min/kg] | half-life [1] [h] | Vd ([2]; rat) [L/kg] | clearance ([2]; rat) [mL/min/kg] | Vd ([2]; dog) [L/kg] | clearance ([2]; dog) [mL/min/kg] | fraction unbound ([2]; dog) | fraction unbound ([2]; rat) | fraction unbound [1] | Vd ([2]; monkey) [L/kg] | clearance ([2]; monkey) [mL/min/kg] | fraction unbound ([2]; monkey)
1 | CC(C)(C)NCC(O)COc1ccc(NC(=O)NC2CCCCC2)cc1 (centres undefined) | 11 | 3.3 | 4.9 | 11 | 4.5 | 47.5 | – | – | – | – | – | – | – | –
2 | CCC1(c2ccccc2)C(=O)NC(=O)NC1=O | 140 | 0.54 | 0.063 | 99 | 1.02 | 0.8 | 0.79 | 0.1 | 0.54 | 0.64 | – | – | – | –
3 | CN1CCc2cccc3c2[C@H]1Cc1ccc(O)c(O)c1-3 | 0.67 | 1.6 | 40 | – | – | – | – | – | – | 0.1 | 0.05 | – | – | –
4 | NC1(C(=O)O)CC1 | 7.8 | 0.73 | 1.5 | 5.9 | 0.64 | 3.2 | 0.7 | 0.4 | – | – | – | 0.72 | 3.1 | –
5 | CCCCS(=O)(=O)NC(Cc1ccc(OCCCCC2CCNCC2)cc1)C(=O)O (centres undefined) | 1.8 | 0.34 | 3 | 1.6 | 1.42 | – | 0.52 | 36.4 | 0.55 | 0.15 | 0.36 | – | – | –
6 | C[C@@H](O)C1C(=O)N2C(C(=O)O)=C(SCCOC(N)=O)S[C@H]12 (some centres undefined) | 0.67 | 0.3 | – | 0.8 | 0.14 | – | 0.24 | – | – | – | 0.35 | 0.21 | – | –
7 | O=C(NCC1CCCCN1)c1cc(OCC(F)(F)F)ccc1OCC(F)(F)F (centres undefined) | 21 | 6.1 | – | 12 | 6.9 | – | 1.1 | – | 0.3 | – | – | – | – | –
8 | COc1cc2nc(N3CCN(C(=O)C(C)OC)CC3)nc(N)c2cc1OC (centres undefined) | 13.7 | 0.44 | 0.53 | – | 5.9 | 44.2 | – | – | – | – | – | – | – | –
9 | CC(=O)[C@]1(O)Cc2c(O)c3c(c(O)c2[C@@H](O[C@H]2C[C@H](N)[C@H](O)[C@H](C)O2)C1)C(=O)c1ccccc1C3=O | 26 | 38 | 24 | 16 | 36.5 | 78.5 | 34.5 | – | – | – | 0.076 | – | – | –
10 | CCn1cc(C(=O)O)c(=O)c2cc(F)c(N3CCNCC3)nc21 | 6.2 | 2 | 5.4 | 5.1 | 1.8 | 42.7 | – | – | – | – | 0.8 | – | – | –
11 | CN[C@@H](C)Cc1ccccc1 | 16 | 4.3 | 4.4 | 12 | 9 | 126 | – | – | – | 0.92 | 0.85 | – | – | –
12 | NCC1(CC(=O)O)CCCCC1 | 7 | 0.71 | 1.7 | 5.3 | 1.1 | 9.1 | 0.16 | 2.3 | – | 0.02 | – | 0.65 | 2.3 | 0.02
13 | C[C@@H](O)C1C(=O)N2C(C(=O)[O-])=C(SC3Cn4cnc[n+]4C3)[C@H](C)[C@H]12 (some centres undefined) | 1.3 | 0.2 | 2.5 | 1.1 | 0.19 | 13 | 0.21 | 4.7 | 0.94 | 0.96 | 0.92 | 0.25 | 5.5 | –
14 | C[C@]12CC[C@@H]3c4ccc(OC(=O)N(CCCl)CCCl)cc4CC[C@H]3[C@@H]1CC[C@@H]2OP(=O)(O)O | 2.1 | 0.12 | 0.94 | 2.4 | – | – | 0.16 | 2 | – | – | 0.5 | – | – | –
